The values that follow come from US20240002429A1, “PRODRUG OF 5a-HYDROXY-6ß-[2-(1H-IMIDAZOL-4-YL)ETHYLAMINO]CHOLESTAN-3ß-OL AND PHARMACEUTICAL COMPOSITIONS COMPRISING SAME FOR USE IN THE TREATMENT OF CANCER” (priority 2020, published 2024).

pIC50: −log10 of the molar value. Where two headings read alike, the source gives them in different places.

One experiment deals with 4T1 cells. Description: Cytotoxicity on 4T1 cells, CellTox Green Cytotoxicity Assay. The experiment is classed as cell-based, murine. To be noted: Mus musculus, 4T1, Green Cytotoxicity Assay, 48 h; for IC50: log of IC50 in μM, read-out: Mean LogIC50 (±SEM) (converted); for pIC50: read-out: IC50. How it is done: The cellular viability tests were carried out on murine mammary tumor 4T1 cells characterized as negative triples (HER2−, ER−, PR−).
For this experiment, a cell culture medium was prepared. The culture medium consists of Dulbecco's Modified Eagle Medium (DMEM, marketed by Westburg under the reference LO BE12-604F), comprising 4.5 g/L glucose with L-glutamine, to which 10% of fetal calf serum (FCS) and 50 U/mL of penicillin/streptomycin are added. The 4T1 cells are introduced into this culture medium.
96-well plates were seeded with 2000 4T1 cells per well. After 72 hours (h) of culture in normal conditions, i.e. in an incubator at a temperature of 37° C. at 5% CO2, the 4T1 cells are treated for 48 h with DX101, DX107, DX113, DX117, DX119, DX121 or DX131 at 100 nM, 1 μM, 2.5 μM and 10 μM. A control condition (CTL) is also carried out in parallel using the protocol described above but without treatment with the molecules DX101, DX107, DX113, DX117, DX119, DX121, DX131 or DX133.
For the third method, the percentage viability is determined using the kit CellTox Green Cytotoxicity Assay (Promega). This assay measures cell death via a change in membrane integrity. […] As a result, the higher the fluorescence in the wells, the greater is the cell death. After 48 h of treatment, the cells are incubated for a minimum of 15 minutes in the presence of the Celltox green reagent at room temperature and the fluorescence is read at […]. The percentage cell death is determined using the control 100% of cell death (carried out for untreated cells incubated in the presence of the lysis solution for 30 minutes at 37° C. before adding the Celltox green reagent), and the cellular viability in each well is then deduced from this percentage. IC50 is then determined as explained above.

A further experiment concerns 4T1 tumors. Description: Effect on 4T1 tumor growth and survival in vivo. To be noted: 4T1 tumors in Balb/c mice, 40 mg/kg by stomach tube every day; for Median survival: Kaplan-Meier; for Inhibition of tumor growth: day 8 vs day 0. How it is done:
All the procedures on the animals were carried out in accordance with the guidelines of our institution after being approved by the ethics committee. The 4T1 cells were cultured as before, and were dissociated in trypsin and washed twice in cold PBS and resuspended in PBS at 1.5 million/mL. The 4T1 tumors were obtained by subcutaneous transplantation of 0.150 million cells in 100 μL in the flank of female Balb/c mice (9 weeks, January). When the tumors reached a volume of 50-100 mm^3, the mice were fed by stomach tube with 40 mg/kg of DX101 or 40 mg/kg of […] or the control vehicle (water). The treatment was carried out every day until the end of the experiment (tumor volume >1000 mm^3). The tumor volume was determined every day using a caliper gauge and calculated from the formula: ½×(Length*Width^2). The percentage inhibition of tumor growth was determined from the following formula: 100×(1−(tumor volume, day 8/tumor volume day 0)DX107)/(1−(tumor volume, day 8/tumor volume day 0)vehicle).
The Kaplan-Meier method was used for comparing the animals' survival.

The test system of the next experiment is Neuro2a cells. Description: Cytotoxicity on Neuro2a cells, trypan blue assay. The experiment is classed as cell-based, murine. To be noted: 48 h; for percentage of live cells compared to the control group: 100 nM. How it is done: For this experiment, a cell culture medium was prepared. The culture medium consists of a Dulbecco's Modified Eagle Medium (DMEM) marketed by Westburg under the reference LO BE12-604F), comprising 4.5 g/L glucose with L-glutamine, to which 10% of fetal calf serum (FCS) is added. Neuro2a cells (murine neuroblastoma) were introduced into this culture medium.
24-well plates were seeded with 10000 Neuro2a cells per well. After culture for 72 hours (h) in normal conditions, i.e. in an incubator at a temperature of 37° C. at 5% CO2, the Neuro2a cells were treated for 48 h with 5α-hydroxy-6β-[2-(1H-imidazol-4-yl)-ethylamino]-cholestan-3β-yl-propionate and 5α-hydroxy-6β-[2-(1H-imidazol-4-yl)-ethylamino]-cholestan-3β-ol at 100 nM, 1 μM and 10 μM. A control (CTL) is also carried out using the protocol described above but without treatment with the aforementioned compounds. Cell survival is quantified by a trypan blue assay with automatic counting with the Biorad TC20 apparatus (TC20™ Automated Cell Counter). The trypan blue assay is based on the integrity of the cell membrane, which is broken in dead cells. The trypan blue stains the dead cells blue. The Biorad TC20 cell counter counts the proportions of blue cells and non-blue cells, relative to the cell percentages.

The subject of experiment [1] is MCF-7 mammary tumor cells. Description: cells. The experiment is classed as cell-based. To be noted: Homo sapiens, MCF7, 48 h, read-out: cellular viability relative to the control group. Here is the method:
A cell viability test was carried out on MCF-7 mammary tumor cells (Michigan Cancer Foundation-7) […] (ER(+) cells) containing receptors for the hormone estrogen.
The MCF-7 cells are in a cell culture medium identical to example 14 and are seeded in 12-well plates at 50000 cells per well for 24 h. 24 hours after seeding, the cells are treated with the solvate vehicle comprising water and ethanol with an ethanol ratio 1‰ and comprising 5α-hydroxy-6β-[2-(1H-imidazol-4-yl)-ethylamino]-cholestan-3β-yl propionate or 5α-hydroxy-6β-[2-(1H-imidazol-4-yl)-ethylamino]-cholestan-3β-ol at 1, 2.5 or 5 μM. The cells are observed in an inverted microscope and photographed with the microscope camera at 24 h and 48 h. The morphological changes of the cells at 1 μM are very slight.
Following these observations, a cell viability test is measured by MTT labeling at 48 hours. This test is based on the use of the tetrazolium salt MTT (3-(4,5-dimethylthiazol-2-yl)-2,5-diphenyltetrazolium bromide). Tetrazolium is reduced by mitochondrial succinate dehydrogenase of active living cells, in formazan, precipitate of violet color. The amount of precipitate formed is proportional to the quantity of living cells but also to the metabolic activity of each cell. […] After 48 hours, the medium is aspirated, the cells are washed with phosphate-buffered saline (PBS) and then incubated with MTT (0.5 mg/ml in PBS) for about 2 hours. The MTT solution is aspirated and then the violet crystals are dissolved in dimethylsulfoxide (DMSO). The OD (optical density) is measured at 540 nm.
The control group is carried out similarly to the study groups without adding the molecules studied in the present text. Compared to the control, a decrease is measured, dependent on the dose of […], in cellular viability in MTT for 5α-hydroxy-6β-[2-(1H-imidazol-4-yl)-ethylamino]-cholestan-3β-yl propionate and 5α-hydroxy-6β-[2-(1H-imidazol-4-yl)-ethylamino]-cholestan-3β-ol.

In general, pIC50 refers to −log10 of the IC50, conventionally taken in molar units. The term viability denotes a read-out of living cells in per cent, often relative to untreated cells.

For `CC(C)CCC[C@@H](C)[C@H]1CC[C@H]2[C@@H]3C[C@@H](NCCc4c[nH]cn4)[C@@]4(O)C[C@@H](O)CC[C@]4(C)[C@H]3CC[C@]12C` [DX101, 5α-hydroxy-6β-[2-(1H-imidazol-4-yl)-ethylamino]-cholestan-3β-ol, reference compound], in the experiment with 4T1 cells, the IC50 was 3.55 µM and the pIC50 is 5.45. In addition, in the experiment on 4T1 tumors, the Median survival is listed as 9 days and the “Inhibition of tumor growth” value is recorded as 58%. The “percentage of live cells compared to the control group” value in the experiment on Neuro2a cells is listed as “unchanged”. Also, the “percentage cell survival relative to the control group” value with Neuro2a cells (1 μM) turned out to be 85.42±4.73%. Further, the “percentage cell survival relative to the control group” value in the experiment with Neuro2a cells (10 μM) is on record as 43.25%. Further, in experiment [1], the viability at 2.5 µM is around 60% and the viability at 5 µM is around 18%.

Regarding `CCC(=O)O[C@H]1CC[C@]2(C)[C@H]3CC[C@]4(C)[C@@H]([C@H](C)CCCC(C)C)CC[C@H]4[C@@H]3C[C@@H](NCCc3c[nH]cn3)[C@@]2(O)C1` [DX107, 5α-hydroxy-6β-[2-(1H-imidazol-4-yl)ethylamino]cholestan-3β-yl propionate], in the experiment with 4T1 cells, the IC50 was 2.34 µM and the pIC50 is 5.63. For the same molecule, in the experiment with 4T1 tumors, the Median survival is 14 days and the “Inhibition of tumor growth” value is reported as 78%. In the experiment with Neuro2a cells, the “percentage of live cells compared to the control group” value is “unchanged”. Besides, the “percentage cell survival relative to the control group” value in the experiment with Neuro2a cells (1 μM) turned out to be 84.08±4.09%. Also, the “percentage cell survival relative to the control group” value in the experiment with Neuro2a cells (10 μM) is on record as 30.46±5.22%. Also, in experiment [1], the viability at 2.5 µM is around 95% and the viability at 5 µM is around 18%.
